Results from ChEMBL document CHEMBL1629608, “Variations in amino acid composition of antisense peptide-phosphorodiamidate morpholino oligomer affect potency against Escherichia coli in vitro and in vivo” (Antimicrob Agents Chemother, 2009).
≈ marks a conversion by molar mass, not a printed value.

Test system: Escherichia coli
Test: Antibacterial activity against Escherichia coli K-12 W3110 by microdilution method
Format: functional
Settings: K-12 substr. W3110

Structure (SMILES)	MIC
Cc1cn([C@H]2CN(P(=O)(OC[C@@H]3CN(P(=O)(OC[C@@H]4CN(P(=O)(OC[C@@H]5CN(P(=O)(OC[C@@H]6CN(P(=O)(OC[C@@H]7CN(P(=O)(OC[C@@H]8CN(P(=O)(OC[C@@H]9CN(P(=O)(OC[C@@H]%10CNC[C@H](n%11cnc%12c(=O)[nH]c(N)nc%12%11)O%10)N(C)C)C[C@H](n%10cc(C)c(=O)[nH]c%10=O)O9)N(C)C)C[C@H](n9cnc%10c(=O)[nH]c(N)nc%109)O8)N(C)C)C[C@H](n8cnc9c(N)ncnc98)O7)N(C)C)C[C@H](n7cc(C)c(=O)[nH]c7=O)O6)N(C)C)C[C@H](n6cnc7c(N)ncnc76)O5)N(C)C)C[C@H](n5cnc6c(=O)[nH]c(N)nc65)O4)N(C)C)C[C@H](n4ccc(N)nc4=O)O3)N(C)C)C[C@@H](COP(=O)(N(C)C)N3C[C@@H](COP(=O)(N(C)C)N4C[C@@H](COP(=O)(N(C)C)N5CCN(C(=O)CCNC(=O)CCCCCNC(=O)[C@H](CCCCN)NC(=O)[C@H](Cc6ccccc6)NC(=O)[C@H](Cc6ccccc6)NC(=O)[C@H](CCCCN)NC(=O)[C@H](Cc6ccccc6)NC(=O)[C@H](Cc6ccccc6)NC(=O)[C@H](CCCCN)NC(=O)[C@H](Cc6ccccc6)NC(=O)[C@H](Cc6ccccc6)NC(=O)[C@@H](N)CCCCN)CC5)O[C@@H](n5ccc(N)nc5=O)C4)O[C@@H](n4cc(C)c(=O)[nH]c4=O)C3)O2)c(=O)[nH]c1=O (stereo not given in full)	10 µM (≈ 53.6 µg/mL)
Cc1cn([C@H]2CN(P(=O)(OC[C@@H]3CN(P(=O)(OC[C@@H]4CN(P(=O)(OC[C@@H]5CN(P(=O)(OC[C@@H]6CN(P(=O)(OC[C@@H]7CN(P(=O)(OC[C@@H]8CN(P(=O)(OC[C@@H]9CN(P(=O)(OC[C@@H]%10CNC[C@H](n%11cnc%12c(=O)[nH]c(N)nc%12%11)O%10)N(C)C)C[C@H](n%10cc(C)c(=O)[nH]c%10=O)O9)N(C)C)C[C@H](n9cnc%10c(=O)[nH]c(N)nc%109)O8)N(C)C)C[C@H](n8cnc9c(N)ncnc98)O7)N(C)C)C[C@H](n7cc(C)c(=O)[nH]c7=O)O6)N(C)C)C[C@H](n6cnc7c(N)ncnc76)O5)N(C)C)C[C@H](n5cnc6c(=O)[nH]c(N)nc65)O4)N(C)C)C[C@H](n4ccc(N)nc4=O)O3)N(C)C)C[C@@H](COP(=O)(N(C)C)N3C[C@@H](COP(=O)(N(C)C)N4C[C@@H](COP(=O)(N(C)C)N5CCN(C(=O)CCNC(=O)CCCCCNC(=O)[C@@H](Cc6ccccc6)NC(=O)[C@@H](Cc6ccccc6)NC(=O)[C@@H](CCCNC(=N)N)NC(=O)[C@@H](Cc6ccccc6)NC(=O)[C@@H](Cc6ccccc6)NC(=O)[C@@H](CCCNC(=N)N)NC(=O)[C@@H](Cc6ccccc6)NC(=O)[C@H](Cc6ccccc6)NC(=O)[C@H](N)CCCNC(=N)N)CC5)O[C@@H](n5ccc(N)nc5=O)C4)O[C@@H](n4cc(C)c(=O)[nH]c4=O)C3)O2)c(=O)[nH]c1=O (stereo not given in full)	5 µM (≈ 26.6 µg/mL)
Cc1cn([C@H]2CN(P(=O)(OC[C@@H]3CN(P(=O)(OC[C@@H]4CN(P(=O)(OC[C@@H]5CN(P(=O)(OC[C@@H]6CN(P(=O)(OC[C@@H]7CN(P(=O)(OC[C@@H]8CN(P(=O)(OC[C@@H]9CN(P(=O)(OC[C@@H]%10CNC[C@H](n%11cnc%12c(=O)[nH]c(N)nc%12%11)O%10)N(C)C)C[C@H](n%10cc(C)c(=O)[nH]c%10=O)O9)N(C)C)C[C@H](n9cnc%10c(=O)[nH]c(N)nc%109)O8)N(C)C)C[C@H](n8cnc9c(N)ncnc98)O7)N(C)C)C[C@H](n7cc(C)c(=O)[nH]c7=O)O6)N(C)C)C[C@H](n6cnc7c(N)ncnc76)O5)N(C)C)C[C@H](n5cnc6c(=O)[nH]c(N)nc65)O4)N(C)C)C[C@H](n4ccc(N)nc4=O)O3)N(C)C)C[C@@H](COP(=O)(N(C)C)N3C[C@@H](COP(=O)(N(C)C)N4C[C@@H](COP(=O)(N(C)C)N5CCN(C(=O)CCNC(=O)CCCCCNC(=O)[C@@H](N)CCCNC(=O)CCCCCNC(=O)[C@@H](N)CCCNC(=O)CCCCCNC(=O)[C@@H](N)CCCNC(=O)CCCCCNC(=O)[C@@H](N)CCCNC(=O)CCCCCNC(=O)[C@@H](N)CCCNC(=O)CCCCCNC(=O)[C@@H](N)CCCN)CC5)O[C@@H](n5ccc(N)nc5=O)C4)O[C@@H](n4cc(C)c(=O)[nH]c4=O)C3)O2)c(=O)[nH]c1=O (stereo not given in full)	> 80 µM

Further lines, results first:

MIC	Structure (SMILES)
80 µM (≈ 394 µg/mL)	Cc1cn([C@H]2CN(P(=O)(OC[C@@H]3CN(P(=O)(OC[C@@H]4CN(P(=O)(OC[C@@H]5CN(P(=O)(OC[C@@H]6CN(P(=O)(OC[C@@H]7CN(P(=O)(OC[C@@H]8CN(P(=O)(OC[C@@H]9CN(P(=O)(OC[C@@H]%10CNC[C@H](n%11cnc%12c(=O)[nH]c(N)nc%12%11)O%10)N(C)C)C[C@H](n%10cc(C)c(=O)[nH]c%10=O)O9)N(C)C)C[C@H](n9cnc%10c(=O)[nH]c(N)nc%109)O8)N(C)C)C[C@H](n8cnc9c(N)ncnc98)O7)N(C)C)C[C@H](n7cc(C)c(=O)[nH]c7=O)O6)N(C)C)C[C@H](n6cnc7c(N)ncnc76)O5)N(C)C)C[C@H](n5cnc6c(=O)[nH]c(N)nc65)O4)N(C)C)C[C@H](n4ccc(N)nc4=O)O3)N(C)C)C[C@@H](COP(=O)(N(C)C)N3C[C@@H](COP(=O)(N(C)C)N4C[C@@H](COP(=O)(N(C)C)N5CCN(C(=O)CCNC(=O)CCCCCNC(=O)[C@H](CCCNC(=N)N)NC(=O)CCCCCNC(=O)[C@H](CCCNC(=N)N)NC(=O)CCCCCNC(=O)[C@H](CCCNC(=N)N)NC(=O)CCCCCNC(=O)[C@@H](N)CCCNC(=N)N)CC5)O[C@@H](n5ccc(N)nc5=O)C4)O[C@@H](n4cc(C)c(=O)[nH]c4=O)C3)O2)c(=O)[nH]c1=O (stereo not given in full)
> 80 µM	Cc1cn([C@H]2CN(P(=O)(OC[C@@H]3CN(P(=O)(OC[C@@H]4CN(P(=O)(OC[C@@H]5CN(P(=O)(OC[C@@H]6CN(P(=O)(OC[C@@H]7CN(P(=O)(OC[C@@H]8CN(P(=O)(OC[C@@H]9CN(P(=O)(OC[C@@H]%10CNC[C@H](n%11cnc%12c(=O)[nH]c(N)nc%12%11)O%10)N(C)C)C[C@H](n%10cc(C)c(=O)[nH]c%10=O)O9)N(C)C)C[C@H](n9cnc%10c(=O)[nH]c(N)nc%109)O8)N(C)C)C[C@H](n8cnc9c(N)ncnc98)O7)N(C)C)C[C@H](n7cc(C)c(=O)[nH]c7=O)O6)N(C)C)C[C@H](n6cnc7c(N)ncnc76)O5)N(C)C)C[C@H](n5cnc6c(=O)[nH]c(N)nc65)O4)N(C)C)C[C@H](n4ccc(N)nc4=O)O3)N(C)C)C[C@@H](COP(=O)(N(C)C)N3C[C@@H](COP(=O)(N(C)C)N4C[C@@H](COP(=O)(N(C)C)N5CCN(C(=O)CCNC(=O)CCCCCNC(=O)[C@H](CCCNC(=N)N)NC(=O)CCNC(=O)CCNC(=O)[C@H](CCCNC(=N)N)NC(=O)CCNC(=O)CCNC(=O)[C@H](CCCNC(=N)N)NC(=O)CCNC(=O)CCNC(=O)[C@@H](N)CCCNC(=N)N)CC5)O[C@@H](n5ccc(N)nc5=O)C4)O[C@@H](n4cc(C)c(=O)[nH]c4=O)C3)O2)c(=O)[nH]c1=O (stereo not given in full)
